Positions of bridges follow the written chain, without caps; N, C: chain ends. Residues, ends and D or L forms follow the SMILES beside them. rhodamine = not defined here
Assays:
canonical Wnt signaling = assay: Activity assay (Example 1): TOPflash luciferase reporter in HEK (HEK293-superTOPflash) cells, receptor not specified; assay type: cell-based, human; settings: for activity on the frizzled receptor: antagonist or agonist: model of Example 1; for effect of the peptide by itself on luciferase activity: without Wnt3a
Procedure: (§1) Human embryonic kidney (HEK) cells were used for screening. These cells have a luciferase construct stably transfected into the genome (see FIG. 2A), such that when the frizzled receptor is activated and β-catenin is increased, the luciferase is activated by transcription and light can be measured.
(§2) The peptides were tested by transfecting the frizzled-1 or the frizzled-2 receptor and addition of UM206(S-S) to the cell culture. For testing antagonistic activity, UM206 was added and the natural ligand Wnt3a was added, which is a natural stimulus for the canonical pathway.
Transfection and Luciferase Measurement:
Plate cells in 12-well plates
(§3) Day 2: Transfection 12-Well Plates • heat Fugene6 and DNA 15 minutes at RT • 2 ml serum-free medium in tube • add 3 μl fugene • add 2 μg DNA • incubate 30 minutes at RT • wash with PBS • add 50 μl transfectiemix • add 1 ml antibiotica-free medium
(§4) Day 3: Add Conditioned Medium or UM206
(§5) Day 4: Luciferase Activity Measurements • remove medium • wash with PBS • add 500 μl ⅕ lysisbuffer • shake for 60 minutes • centrifuge in tube • 20 μl lysaat and 50 μl luciferase in new tube for measurement • vortex • measure
(§6) Three areas of high homology that contained two cysteines are underlined (UM207), (UM208) and (UM206). In FIGS. 9B through 9D, the inhibitory effect of these three peptides on Wnt3a-induced luciferase activity in HEK293-superTOPflash is shown. […] Again, the peptides by themselves had no effect on the luciferase activity.
(§7) The cell lines were cultured in 75 cm^2 culture flasks (Corning, Schiphol, the Netherlands) in Dulbeco's modified essential medium with L-glutamine (2 mM), 10% fetal calf serum (Invitrogen, Merelbeke, Belgium), and 1% gentamycin (Sigma-Aldrich, Zwijndrecht, The Netherlands). Before starting the experiment, the cell lines were treated with plasmocin 25 μg/ml (Invivogen, Toulose, France) and tested with a mycoalert mycoplasma detection kit (Lonza, Rockland Me., USA). Cells were transiently transfected with Fugene6 (Roche, Indianapolis Ind., USA) with plasmid DNA, pcDNA3.1/hygro (Invitrogen) with frizzled-1/2/4 or Wnts 3a-5a or with pcDNA3.0 (Invitrogen) containing the β-catenin or frizzled-5 sequence. After transfection, the cells were cultured for 24 hours in conditioned medium, collected from the cultured L-cells, L-cells with Wnt3a or 5a (Invitrogen). At the same moment the antagonist was added.
For the luciferase experiments not in HEK cells, the cells were additionally transfected with a TOPflash construct, eight TCF/LEF binding sites cloned into the pTA-Luc vector. Luciferase activity was measured using luciferase assay system (Promega, Madison Wis., USA).

frizzled-1 (rFzd-1) = target: T1, frizzled-1 (rFzd-1) (Rattus norvegicus, UniProt Q08463); assay: Activity assay: luciferase reporter in HEK superTOPflash cells transfected with frizzled-1; assay type: cell-based; settings: for block of Wnt3a-induced luciferase activity, rFzd-1: peptide 1.10^−8 M
T1 construct: expressed in transfected cells; host or cells: HEK293 superTOPflash (transient, Fugene6, pcDNA3.1/hygro)
T1 sequence (Q08463 69-641): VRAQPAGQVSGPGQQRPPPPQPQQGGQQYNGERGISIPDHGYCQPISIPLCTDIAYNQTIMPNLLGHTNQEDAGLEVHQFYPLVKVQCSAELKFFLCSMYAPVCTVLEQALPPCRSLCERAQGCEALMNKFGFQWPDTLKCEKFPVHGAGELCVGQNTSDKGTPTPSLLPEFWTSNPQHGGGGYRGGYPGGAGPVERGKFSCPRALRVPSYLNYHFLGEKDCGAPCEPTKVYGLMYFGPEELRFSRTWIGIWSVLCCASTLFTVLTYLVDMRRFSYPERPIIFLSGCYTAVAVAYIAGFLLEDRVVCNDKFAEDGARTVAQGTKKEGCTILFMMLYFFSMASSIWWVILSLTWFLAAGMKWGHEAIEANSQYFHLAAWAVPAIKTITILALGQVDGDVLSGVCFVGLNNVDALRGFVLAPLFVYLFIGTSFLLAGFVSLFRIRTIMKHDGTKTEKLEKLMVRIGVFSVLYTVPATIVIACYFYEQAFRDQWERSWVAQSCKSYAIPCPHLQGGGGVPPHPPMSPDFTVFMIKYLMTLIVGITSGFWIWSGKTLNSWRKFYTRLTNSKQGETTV
Procedure: as §1, §2, §3, §4, §5, §6
(§8) To determine the inhibitory constant of UM206-8, HEK293-superTOPflash cells were transfected with either rFzd-1 or -2 and incubated with Wnt3a (10^−9M) in the presence of increasing concentrations of either of the peptides (FIG. 15). For UM206, a biphasic inhibition curve was observed that was best fitted with a two-binding-state model.
as §7

frizzled-2 (rFzd-2) = target: T2, frizzled-2 (rFzd-2) (Rattus norvegicus, UniProt Q08464); assay: Activity assay: luciferase reporter in HEK superTOPflash cells transfected with frizzled-2; assay type: cell-based; settings: for block of Wnt3a-induced luciferase activity, rFzd-2: peptide 1.10^−8 M
T2 construct: expressed in transfected cells; host or cells: HEK293 superTOPflash (transient, Fugene6, pcDNA3.1/hygro)
T2 sequence (Q08464 29-570): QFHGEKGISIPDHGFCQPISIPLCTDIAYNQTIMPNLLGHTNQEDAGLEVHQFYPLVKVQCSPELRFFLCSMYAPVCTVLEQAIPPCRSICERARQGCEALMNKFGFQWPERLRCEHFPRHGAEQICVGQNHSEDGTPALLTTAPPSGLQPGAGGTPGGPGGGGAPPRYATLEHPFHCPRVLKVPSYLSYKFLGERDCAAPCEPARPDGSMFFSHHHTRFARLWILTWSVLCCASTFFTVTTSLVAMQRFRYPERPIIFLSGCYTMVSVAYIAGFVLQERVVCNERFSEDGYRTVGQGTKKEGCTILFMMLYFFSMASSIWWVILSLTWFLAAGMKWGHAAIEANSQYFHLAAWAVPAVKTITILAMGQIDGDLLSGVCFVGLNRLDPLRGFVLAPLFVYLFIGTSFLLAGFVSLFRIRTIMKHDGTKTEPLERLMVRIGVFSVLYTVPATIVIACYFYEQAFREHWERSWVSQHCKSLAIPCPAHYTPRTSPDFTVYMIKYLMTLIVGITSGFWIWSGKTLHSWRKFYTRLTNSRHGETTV
Procedure: as §1, §2, §3, §4, §5, §6, §8, §7

hFzd-4 = target: T3, hFzd-4 (Homo sapiens, UniProt Q9ULV1); assay: Receptor specificity: luciferase in HEK293 superTOPflash cells overexpressing hFzd-4; assay type: cell-based; settings: FIG. 3, Panel F
T3 construct: expressed in transfected cells; host or cells: HEK293 superTOPflash (transient, Fugene6, pcDNA3.1/hygro)
T3 sequence (Q9ULV1 37-537): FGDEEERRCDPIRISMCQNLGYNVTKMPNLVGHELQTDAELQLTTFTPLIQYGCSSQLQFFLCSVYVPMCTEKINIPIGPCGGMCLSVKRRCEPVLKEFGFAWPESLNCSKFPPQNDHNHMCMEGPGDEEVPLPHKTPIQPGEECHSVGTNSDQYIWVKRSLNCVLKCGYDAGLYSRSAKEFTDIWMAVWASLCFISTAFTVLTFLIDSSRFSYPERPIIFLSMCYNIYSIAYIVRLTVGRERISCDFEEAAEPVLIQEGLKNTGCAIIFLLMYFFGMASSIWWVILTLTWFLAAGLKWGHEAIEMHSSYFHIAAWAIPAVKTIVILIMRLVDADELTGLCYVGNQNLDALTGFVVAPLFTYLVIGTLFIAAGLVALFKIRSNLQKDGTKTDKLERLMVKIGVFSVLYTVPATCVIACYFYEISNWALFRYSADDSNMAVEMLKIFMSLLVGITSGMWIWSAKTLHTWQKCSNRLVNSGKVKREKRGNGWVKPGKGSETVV
Procedure: In FIG. 3, Panel E, the efficacy of UM206 to block the Wnt3a-induced activation of luciferase activity in HEK293 superTOPflash cells transfected with different Fzds is shown.
as §7

Fzd-1 and -2 = assay: Binding of rhodamine-labeled UM206 to frozen sections of mouse kidney and small intestine and its blocking
Procedure: Specificity of the binding site was confirmed by prior incubation of the tissue sections with UM207 (1.10^−7 M) or recombinant Wnt3a (1.10^−8 M).
One-half of the hearts of the mice was embedded in paraffin and cut in 4 μm sections. The paraffin sections were rehydrated and washed in PBS. One section was stained with AZAN, allowing an accurate determination of the infarct size. To visualize the myofibroblasts in the infarct area, the sections were incubated with an antibody directed against α-smooth muscle actin (Sigma-Aldrich), followed by incubation with the peroxidase-conjugated secondary antibody (Vector laboratories). Nuclei were visualized by hematoxylin. Photos were taken with a Leica (CTR500, 63×/0.85) camera and analyzed with the Quantimet program (QWin/QGo). An examiner blinded to the groups of the animals obtained all measurements. For the experiments with Rhodamine-labeled UM206, frozen sections (4 μm) of mouse kidney and small intestine were used.

CNVSSHGIDGCDL (listed as Homo sapiens) [peptide derived from the area of Wnt3a homologous to UM206]
antagonistic properties of UM206 analogues (canonical Wnt signaling; alanine scan and modifications, 1.10-9 M): potency was lower than that of UM206

CSCC[C@@H]1NC(=O)CNC(=O)[C@H](CCC(=O)O)NC(=O)[C@H](CO)NC(=O)[C@H]([C@@H](C)O)NC(=O)[C@H](CCCCN)NC(=O)[C@H](CC(N)=O)NC(=O)[C@@H](NC(C)=O)CSSC[C@@H](C(=O)N[C@@H](CCC(=O)O)C(=O)N[C@@H](CC(C)C)C(N)=O)NC(=O)CNC(=O)[C@H](CC(=O)O)NC1=O [UM206(S-S)] (Ac-CNKTSEGMDGCEL-NH2; disulfide 1-11)
activity on the frizzled receptor: antagonist or agonist (canonical Wnt signaling): potent agonist | agonist activity at frizzled-1 (frizzled-1 (rFzd-1); FIG. 3, Panel F): specific agonist | agonist activity at frizzled-2 (frizzled-2 (rFzd-2); FIG. 3, Panel F): specific agonist | agonist activity at frizzled-4 (hFzd-4): not for frizzled-4 or frizzled-5

CC(=O)NCC(=O)N[C@@H](CO)C(=O)N[C@@H](CS)C(=O)N[C@@H](CO)C(=O)N[C@@H](CC(C)C)C(=O)N[C@@H](CCCCN)C(=O)N[C@H](C(=O)N[C@@H](CS)C(=O)N[C@@H](Cc1c[nH]c2ccccc12)C(=O)N[C@@H](CC(C)C)C(=O)N[C@@H](CCC(N)=O)C(=O)N[C@@H](CC(C)C)C(=O)N[C@@H](C)C(=O)N[C@@H](CC(=O)O)C(N)=O)[C@@H](C)O [UM208, GSCSLKTCWLQLAD] (Ac-GSCSLKTCWLQLAD-NH2)
effect of the peptide by itself on luciferase activity (canonical Wnt signaling): none of the three peptides by itself could induce an increase in luciferase activity | block of Wnt3a-induced luciferase activity, rFzd-1 (frizzled-1 (rFzd-1)): blocked almost completely | block of Wnt3a-induced luciferase activity, rFzd-2 (frizzled-2 (rFzd-2)): blocked almost completely

UM206-rhodamine: UM206 with rhodamine attached to Lys^3 (Ac-CNK(rhodamine)TSEGMDGCEL-NH2; cysteine pairing not given here; reading uncertain)
effect of rhodamine attachment to Lys^3 on IC50 for blocking Wnt3a-induced luciferase expression (canonical Wnt signaling; HEK293 superTOPflash cells, not shown): did not affect its IC50 value | staining of tissue sections (Fzd-1 and -2; 1.10^−8 M, 15 minutes, two-foton microscopy): staining of tubular epithelium and panneth cells

CC[C@H](C)[C@H](NC(=O)CNC(C)=O)C(=O)N[C@@H](CCCCN)C(=O)N[C@@H](CCC(=O)O)C(=O)N[C@@H](CS)C(=O)N[C@@H](CCC(N)=O)C(=O)N[C@@H](Cc1ccc(O)cc1)C(=O)N[C@@H](CCC(N)=O)C(=O)N[C@@H](Cc1ccccc1)C(=O)N[C@@H](CCCNC(=N)N)C(=O)N[C@@H](Cc1c[nH]cn1)C(=O)N[C@@H](CCCNC(=N)N)C(=O)N[C@@H](CCCNC(=N)N)C(=O)N[C@@H](Cc1c[nH]c2ccccc12)C(=O)N[C@@H](CC(N)=O)C(=O)N[C@@H](CS)C(=O)N[C@@H](CO)C(=O)N[C@H](C(=O)N[C@H](C(=O)N[C@@H](CC(=O)O)C(N)=O)C(C)C)[C@@H](C)O [UM207] (Ac-GIKECQYQFRHRRWNCSTVD-NH2)
activity on the frizzled receptor: antagonist or agonist (canonical Wnt signaling): potent antagonist | effect of the peptide by itself on luciferase activity (canonical Wnt signaling): none of the three peptides by itself could induce an increase in luciferase activity | block of Wnt3a-induced luciferase activity, rFzd-1 (frizzled-1 (rFzd-1)): blocked almost completely | block of Wnt3a-induced luciferase activity, rFzd-2 (frizzled-2 (rFzd-2)): blocked almost completely | blocking of UM206-rhodamine binding by prior incubation (Fzd-1 and -2; UM206-rhodamine 1.10^−8 M, UM207 1.10^−7 M, Wnt3a 1.10^−8 M): completely abolished the binding of UM206-rhodamine
